Results on three compounds are retold here after ChEMBL document CHEMBL3608235, “Pyrroloaryls and pyrroloheteroaryls: Inhibitors of the HIV fusion/attachment, reverse transcriptase and integrase” (Bioorg Med Chem, 2015).

SMILES strings stand for the structures. Where only a bound is given, the exact number is not on record here.

For series [1], the system named is Human immunodeficiency virus 1. As to the kind of experiment: Antiviral activity against CCR5-tropic HIV1 SF162 infected in human PM1 cells by monogram phenosense entry assay. In kind it is functional, organism-based. The settings on record: Human immunodeficiency virus 1, SF162, PM1.
Series [2] deals with Human immunodeficiency virus 1. As to the kind of experiment: Antiviral activity against CXCR4-tropic HIV1 3B infected in human MT2 cells by monogram phenosense entry assay. In kind it is functional, organism-based. The note with it: Human immunodeficiency virus 1, 3B.
For series [3], the system named is Human immunodeficiency virus 1. As to the kind of experiment: Antiviral activity against CCR5-tropic HIV1 JRFL infected in human PM1 cells by monogram phenosense entry assay. In kind it is functional, organism-based. The settings on record: Human immunodeficiency virus 1, JRFL.
Series [4] relates to Human immunodeficiency virus 1. As to the kind of experiment: Antiviral activity against CXCR4-tropic HIV1 MN infected in human MT2 cells by monogram phenosense entry assay. In kind it is functional, organism-based. The settings on record: Human immunodeficiency virus 1, MN.
The test system of series [5] is Human immunodeficiency virus 1. As to the kind of experiment: Antiviral activity against CXCR4-tropic HIV1 LAI infected in human MT2 cells by monogram phenosense entry assay. In kind it is functional, organism-based. The note with it: Human immunodeficiency virus 1, LAI.
Series [6] deals with Human immunodeficiency virus 1. As to the kind of experiment: Antiviral activity against CXCR4-tropic HIV1 NL4-3 infected in human MT2 cells by monogram phenosense entry assay. In kind it is functional, organism-based. The note with it: Human immunodeficiency virus 1, NL4-3, MT2.
Series [7] concerns Human immunodeficiency virus 1. As to the kind of experiment: Antiviral activity against CCR5-tropic HIV1 BAL infected in human PM1 cells by monogram phenosense entry assay. The note with it: Human immunodeficiency virus 1, BAL. In kind it is functional, organism-based.
The subject of another series is C8166. As to the kind of experiment: Cytotoxicity against human C8166 cells. The settings on record: Homo sapiens, C8166. In kind it is cell-based.
A short description of series [8]: Selectivity index, ratio of IC50 for human C8166 cells to EC50 for HIV1 3B infected in human C8166 cells. In kind it is toxicity, cell-based. The note with it: C8166 cells (uninfected and HIV1 3B-infected), read-out: Ratio IC50/EC50.
In series [9] the test system is Human immunodeficiency virus 1. As to the kind of experiment: Antiviral activity against HIV1 3B infected in human C8166 cells assessed as inhibition of virus replication. In kind it is functional, organism-based. The settings on record: Human immunodeficiency virus 1, 3B.
Series [10] can be described thus: Selectivity index, ratio of IC50 for human CEM-SS cells to EC50 for HIV1 infected in human CEM-SS cells. In kind it is toxicity, cell-based. The note with it: CEM-SS cells (uninfected and HIV1-infected), read-out: Ratio IC50/EC50.
Series [11] in a line: Selectivity index, ratio of CC50 for mock-infected human MT4 cells to EC50 for HIV1 infected in human MT4 cells. In kind it is toxicity, cell-based. The note with it: MT4 cells (mock-infected and HIV1-infected), read-out: Ratio CC50/EC50.

Regarding `COc1cnc(-n2cnc(C)n2)c2[nH]cc(C(=O)C(=O)N3CCN(C(=O)c4ccccc4)CC3)c12` [TEMSAVIR], the 50% effective concentration (EC50) (in general, the concentration that produces a half-maximal response) in series [1] was 0.5 nM; in [2] it was 16.2 nM; in [3] it was 0.4 nM; in series [4], 14.8 nM; in [5], 0.7 nM; in series [6], 2.2 nM. In [7], this compound came in with an EC50 of 1.7 nM.

For the compound `CCC1(c2cccc(OC)c2)Oc2ccccc2-n2cccc2C1=O` (stereo not drawn), inhibition with C8166 was half-maximal at 7000 nM (IC50). The selectivity ratio in [8] came to 212. Further, the EC50 in series [9] came out at 33 nM.

As for `Cc1ccnc2c1NC(=O)c1cccnc1N2C1CC1` [NEVIRAPINE], the selectivity ratio in [10] is 525; in series [8], more than 250; in series [11] it was more than 800.
